Measurements reported in patent publication US5834431A, “Des-Arg^9 -BK antagonists” (Cortech, Inc., priority 1995, dated 1998).
Square brackets hold non-standard residues; d marks the D form. Peptide text beside a SMILES is read from it. * marks the point of attachment. Oic = O=C(O)[C@@H]1C[C@@H]2CCCC[C@@H]2N1; X1 = N=C(N)NCCC[C@@H](NC(=N)N)C(=O)*; dIgl = N[C@@H](C(=O)O)C1Cc2ccccc2C1; Gly(cPent) = N[C@H](C(=O)O)C1CCCC1; Igl = N[C@H](C(=O)O)C1Cc2ccccc2C1; Hyp = O=C(O)[C@@H]1C[C@@H](O)CN1; Tic = O=C(O)[C@@H]1Cc2ccccc2CN1; dTic = O=C(O)[C@H]1Cc2ccccc2CN1; 2Thi = N[C@@H](Cc1cccs1)C(=O)O

Columns and labels:
[1] = molecular target: T1, B2 receptor (Cavia porcellus, UniProt O70526); assay: GPI binding B2; conditions: i.a. = inactive; for IC50: read-out: GPI Binding - pIC50 B2 (converted)
T1 construct: from tissue
T1 sequence (O70526 1-372): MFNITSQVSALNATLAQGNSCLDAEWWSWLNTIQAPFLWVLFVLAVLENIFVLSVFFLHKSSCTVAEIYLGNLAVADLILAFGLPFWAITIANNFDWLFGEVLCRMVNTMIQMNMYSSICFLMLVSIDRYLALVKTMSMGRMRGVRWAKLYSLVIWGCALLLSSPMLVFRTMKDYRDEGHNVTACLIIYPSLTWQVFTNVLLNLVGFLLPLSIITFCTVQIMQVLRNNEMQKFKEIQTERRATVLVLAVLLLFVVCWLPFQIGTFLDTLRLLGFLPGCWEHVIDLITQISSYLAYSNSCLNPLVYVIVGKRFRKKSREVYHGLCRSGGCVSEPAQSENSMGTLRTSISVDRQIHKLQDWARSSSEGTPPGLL

[2] = molecular target: T2, B1 receptor (Homo sapiens, UniProt P46663); assay: Human B1 binding, IL-1b-treated IMR-90 membranes, 3H-des-Arg9-Kallidin; conditions: 0.5 nM 3H-des-Arg9-Kallidin, pIC50 = -log of molar IC50
T2 construct: Human lung fibroblasts IMR-90 cells were obtained from ATCC and propagated in DMEM media; host or cells: IMR-90 human lung fibroblasts, treated with interleukin 1b three hours before harvest; membranes
T2 sequence (P46663 1-353): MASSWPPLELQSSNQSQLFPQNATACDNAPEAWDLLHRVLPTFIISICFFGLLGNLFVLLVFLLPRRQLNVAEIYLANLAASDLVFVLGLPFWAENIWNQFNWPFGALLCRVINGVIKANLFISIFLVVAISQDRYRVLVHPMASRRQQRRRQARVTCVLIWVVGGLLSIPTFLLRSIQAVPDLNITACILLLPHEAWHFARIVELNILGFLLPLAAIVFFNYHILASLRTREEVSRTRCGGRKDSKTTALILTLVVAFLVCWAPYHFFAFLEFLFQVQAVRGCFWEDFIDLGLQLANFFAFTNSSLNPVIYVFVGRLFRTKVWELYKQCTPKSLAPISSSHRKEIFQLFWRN
Experimental: (§1) Human lung fibroblasts IMR-90 cells were obtained from ATCC and propagated in DMEM media in […] roller bottles until confluent. Three hours prior to harvesting, the cells were treated with Interleukin lb (200 pg/ml). Human BK2 clones were propagated in F12 media until confluent. Preparation of membranes for binding assays was carried out by scraping cells from roller bottles in ice cold PBS and centrifuging at 1000 ×g, at 4° C. for 15 minutes. The supernatant was discarded and pellet resuspended in Buffer A consisting of 25 mM TES(pH 6.8) with 2 uM 1,10-Phenanthroline, and centrifuged at 27,000 ×g for 15 min. this was then repeated. The final pellet was resuspended in Buffer B (Buffer A with 2 uM Captopril, 140 ug/Ml Bacitracin, 0.1%BSA), and stored in 1 ml aliquots, frozen at -20° C. until needed.
(§2) Binding assays were performed by incubating human clone membranes with 0.3 nM ^3 H-Bradykinin or IMR-90 membranes with 0.5 nM ^3 H-des-Arg^9 -Kallidin in the presence of the peptides in assay buffer (Buffer B with 1 mM Dithiotreitol), at room temperature, for 45 minutes. All test compound dilutions were in triplicate. Assays were harvested by quick filtration in a Tomtec Harvester 96, with ice cold wash buffer consisting of 10 mM Tris/HCl, pH 7.5, 100 mM NaCl, 0.02%BSA, onto Wallec printed glassfiber Filtermat "B", which had been pre-soaked with 0.1% PEI and previously air-dried.

[3] = molecular target: T3, B2 receptor (Homo sapiens, UniProt P30411); assay: Human B2 binding, human BK2 clone membranes, 3H-Bradykinin; conditions: 0.3 nM 3H-Bradykinin, i.a. = inactive; for IC50: read-out: Human Binding - pIC50 B2 (converted)
T3 construct: expressed in transfected cells
T3 sequence (P30411 1-391): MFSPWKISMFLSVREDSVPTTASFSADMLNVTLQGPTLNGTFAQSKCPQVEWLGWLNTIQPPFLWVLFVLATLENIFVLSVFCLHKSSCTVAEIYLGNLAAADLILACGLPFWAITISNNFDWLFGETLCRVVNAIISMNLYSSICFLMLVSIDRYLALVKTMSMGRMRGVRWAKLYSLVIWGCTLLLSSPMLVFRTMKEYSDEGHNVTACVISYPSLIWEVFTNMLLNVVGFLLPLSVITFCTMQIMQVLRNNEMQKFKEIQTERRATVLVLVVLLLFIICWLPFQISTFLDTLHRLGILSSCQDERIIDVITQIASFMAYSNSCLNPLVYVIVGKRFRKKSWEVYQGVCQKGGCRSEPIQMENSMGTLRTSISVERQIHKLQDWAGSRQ
Experimental: as §1
as §2, with “air-dried. Filtermats were counted in 9.5 mls Wallec Beta-Plate Scint, in Wallec 1450 MicroBeta Counter.” for “air-dried.”

[4] = molecular target: T4, BK1 (hypotensive response to desArg9BK) (Canis lupus familiaris, UniProt Q9BDQ5); assay: In vivo inhibition of hypotensive response to desArg9BK in anaesthetized dogs; parameters: species or system Mongrel dogs; conditions: dog, infusion; dose of antagonist to inhibit hypotensive response to desArg9BK by 50%
T4 construct: Mongrel dogs of either sex, weight range 10-15 kg were used; from tissue; host or cells: whole anaesthetized mongrel dog (in vivo blood pressure)
T4 sequence (Q9BDQ5 1-350): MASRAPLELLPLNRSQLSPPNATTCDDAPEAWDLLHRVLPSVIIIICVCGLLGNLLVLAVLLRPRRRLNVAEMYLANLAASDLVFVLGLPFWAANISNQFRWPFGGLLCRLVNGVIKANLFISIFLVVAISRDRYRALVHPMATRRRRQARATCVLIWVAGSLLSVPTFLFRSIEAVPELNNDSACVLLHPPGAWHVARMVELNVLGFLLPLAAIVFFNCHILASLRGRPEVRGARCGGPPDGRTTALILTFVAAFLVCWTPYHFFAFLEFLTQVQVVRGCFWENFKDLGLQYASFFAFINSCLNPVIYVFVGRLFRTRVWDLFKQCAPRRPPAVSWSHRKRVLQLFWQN
Experimental: Mongrel dogs of either sex, weight range 10-15 kg were used. These were anaesthesized with pentobarbitone, 30 mg/kg i.v. and catheters placed in one femoral artery and both femoral veins for the recording of blood pressure and infusion and injection of compounds. […] After the end of the infusion of the highest dose of the antagonist compound, BK and des-Arg^9 -BK were injected at intervals for up to four hours.

| Structure (SMILES) | IC50 [1] [nM] | IC50 [2] [nM] | IC50 [3] [nM] | GPI Binding - pIC50 B2 [1] | BK1 ED50 [4] [µg/kg/min] | Human Binding - pIC50 B2 [3] |
| --- | --- | --- | --- | --- | --- | --- |
| N=C(N)NCCC[C@@H](N)C(=O)N[C@@H](CCCNC(=N)N)C(=O)N1CCC[C@H]1C(=O)N1C[C@H](O)C[C@H]1C(=O)NCC(=O)N[C@H](C(=O)N[C@@H](CO)C(=O)N1Cc2ccccc2C[C@H]1C(=O)N[C@H](C(=O)O)C1CCCC1)C1CCCC1 [B9004, DArg-Arg-Pro-Hyp-Gly-Cpg-Ser-Tic-Cpg] (H-[dR]RP[Hyp]G[Gly(cPent)]S[Tic][Gly(cPent)]-OH) | 6310 | 3.16 | 1580 | – | – | – |
| N=C(N)NCCC[C@H](NC(=O)[C@@H](CCCNC(=N)N)NC(=N)N)C(=O)N1CCC[C@H]1C(=O)N1C[C@H](O)C[C@H]1C(=O)NCC(=O)N[C@@H](Cc1cccs1)C(=O)N[C@@H](CO)C(=O)N[C@@H](C(=O)N1[C@H](C(=O)O)C[C@@H]2CCCC[C@@H]21)C1Cc2ccccc2C1 [B9826, Gun- DArg-Arg-Pro-Hyp-Gly-Thi-Ser-DIgl-Oic] (X1-RP[Hyp]G[2Thi]S[dIgl][Oic]-OH) | 79.4 | 0.126 | 7.94 | – | – | – |
| N=C(N)NCCC[C@@H](N)C(=O)N[C@@H](CCCNC(=N)N)C(=O)N1CCC[C@H]1C(=O)N1C[C@H](O)C[C@H]1C(=O)NCC(=O)N[C@H](C(=O)N[C@@H](CO)C(=O)N1Cc2ccccc2C[C@@H]1C(=O)N[C@H](C(=O)O)C1CCCC1)C1Cc2ccccc2C1 [B9840, DArg-Arg-Pro-Hyp-Gly-Igl-Ser-DTic-Cpg] (H-[dR]RP[Hyp]G[Igl]S[dTic][Gly(cPent)]-OH) | – | 0.794 | 631 | i.a | – | – |
| N=C(N)NCCC[C@H](NC(=O)[C@H](CCCCN)NC(=O)[C@@H](N)CCCCN)C(=O)N1CCC[C@H]1C(=O)N1C[C@H](O)C[C@H]1C(=O)NCC(=O)N[C@H](C(=O)N[C@@H](CO)C(=O)N[C@@H](C(=O)N1[C@H](C(=O)O)C[C@@H]2CCCC[C@@H]21)C1Cc2ccccc2C1)C1Cc2ccccc2C1 [B9858, Lys- Lys-Arg-Pro-Hyp-Gly-Igl-Ser-DIgl-Oic] | 126 | – | 20 | – | 0.03 ± 0.01 | – |
| N=C(N)NCCC[C@@H](N)C(=O)N[C@@H](CCCNC(=N)N)C(=O)N1CCC[C@H]1C(=O)N1C[C@H](O)C[C@H]1C(=O)NCC(=O)N[C@@H](Cc1cccs1)C(=O)N[C@@H](CO)C(=O)N1Cc2ccccc2C[C@H]1C(=O)N[C@H](C(=O)O)C1CCCC1 [B9006, DArg-Arg-Pro-Hyp-Gly-Thi-Ser-Tic-Cpg] (H-[dR]RP[Hyp]G[2Thi]S[Tic][Gly(cPent)]-OH) | 10000 | 12.6 | 631 | – | – | – |
| CC(C)C[C@H](NC(=O)[C@H](NC(=O)[C@H](CO)NC(=O)[C@@H](NC(=O)CNC(=O)[C@@H]1C[C@@H](O)CN1C(=O)[C@@H]1CCCN1C(=O)[C@H](CCCNC(=N)N)NC(=O)[C@H](N)CCCNC(=N)N)C1Cc2ccccc2C1)C1Cc2ccccc2C1)C(=O)O [B9816, DArg-Arg-Pro-Hyp-Gly-Igl-Ser-DIgl-Leu] (H-[dR]RP[Hyp]G[Igl]S[dIgl]L-OH) | 2000 | 1.26 | 631 | – | – | – |
| N=C(N)NCCC[C@@H](N)C(=O)N[C@@H](CCCNC(=N)N)C(=O)N1CCC[C@H]1C(=O)N1C[C@H](O)C[C@H]1C(=O)NCC(=O)N[C@@H](Cc1cccs1)C(=O)N[C@@H](CO)C(=O)N1Cc2ccccc2C[C@@H]1C(=O)N[C@H](C(=O)O)C1CCCC1 [B9068, DArg-Arg-Pro-Hyp-Gly-Thi-Ser-DTic-Cpg] (H-[dR]RP[Hyp]G[2Thi]S[dTic][Gly(cPent)]-OH) | 7940 | 1.58 | 2000 | – | – | – |
| CC(C)C[C@H](NC(=O)[C@H](NC(=O)[C@H](CO)NC(=O)[C@@H](NC(=O)CNC(=O)[C@@H]1C[C@@H](O)CN1C(=O)[C@@H]1CCCN1C(=O)[C@@H](N)CCCNC(=N)N)C1Cc2ccccc2C1)C1Cc2ccccc2C1)C(=O)O [B9814, Arg-Pro-Hyp-Gly-Igl-Ser-DIgl-Leu] (H-RP[Hyp]G[Igl]S[dIgl]L-OH) | – | 6.31 | – | i.a | – | i.a |
| CC(C)C[C@H](NC(=O)[C@@H]1CCCN1C(=O)[C@H](CO)NC(=O)[C@H](Cc1ccccc1)NC(=O)CNC(=O)[C@@H]1CCCN1C(=O)[C@@H]1CCCN1C(=O)[C@H](CCCNC(=N)N)NC(=O)[C@H](CCCCN)NC(=O)CNC(=N)N)C(=O)O [B9810] | – | – | – | i.a | – | i.a |
| N=C(N)NCCC[C@H](NC(=O)[C@@H](N)CCCCN)C(=O)N1CCC[C@H]1C(=O)N1C[C@H](O)C[C@H]1C(=O)NCC(=O)N[C@H](C(=O)N[C@@H](CO)C(=O)N1Cc2ccccc2C[C@@H]1C(=O)N[C@H](C(=O)O)C1CCCC1)C1Cc2ccccc2C1 [B9842, Lys-Arg-Pro-Hyp-Gly-Igl-Ser-DTic-Cpg] (H-KRP[Hyp]G[Igl]S[dTic][Gly(cPent)]-OH) | – | 0.251 | 631 | i.a. | – | – |
